Patent US20120095055A1, “HEXAHYDROCYCLOPENTYL[f]INDAZOLE 5-HYDROXYMETHYL ETHANOLS AND DERIVATIVES THEREOF AS SELECTIVE GLUCOCORTICOID RECEPTOR MODULATORS” (Merck Sharp & Dohme, Corp., priority 2009, published 2012)

Molecular target: T1, human GR (Homo sapiens, UniProt P04150)
T1 construct: naturally expresses the human GR; endogenous in cells
T1 sequence (P04150 1-777): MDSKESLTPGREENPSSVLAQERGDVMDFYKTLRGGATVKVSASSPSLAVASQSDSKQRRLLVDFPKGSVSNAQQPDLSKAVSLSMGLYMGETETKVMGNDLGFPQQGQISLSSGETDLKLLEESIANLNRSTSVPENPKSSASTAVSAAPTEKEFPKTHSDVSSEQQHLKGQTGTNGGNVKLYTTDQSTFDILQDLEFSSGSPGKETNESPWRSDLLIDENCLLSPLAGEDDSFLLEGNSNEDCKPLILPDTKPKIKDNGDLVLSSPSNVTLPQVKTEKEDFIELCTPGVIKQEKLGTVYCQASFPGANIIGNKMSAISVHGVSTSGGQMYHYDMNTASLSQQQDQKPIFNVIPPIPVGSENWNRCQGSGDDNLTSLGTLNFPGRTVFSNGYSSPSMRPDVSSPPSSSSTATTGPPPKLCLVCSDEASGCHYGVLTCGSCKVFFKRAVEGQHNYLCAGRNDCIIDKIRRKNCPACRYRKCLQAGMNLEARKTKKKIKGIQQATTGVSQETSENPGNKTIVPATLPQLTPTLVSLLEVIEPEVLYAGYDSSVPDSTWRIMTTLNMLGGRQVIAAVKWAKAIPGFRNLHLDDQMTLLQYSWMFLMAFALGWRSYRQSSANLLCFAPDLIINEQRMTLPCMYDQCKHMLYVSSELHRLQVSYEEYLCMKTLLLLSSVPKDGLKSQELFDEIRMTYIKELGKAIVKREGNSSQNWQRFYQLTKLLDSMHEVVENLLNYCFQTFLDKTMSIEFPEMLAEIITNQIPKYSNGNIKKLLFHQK
Test: Transrepression Assay (GITAR), TNFα-β-lactamase reporter in U937 cells
Format: cell-based
Conditions: for Transrepression U937 Cells GITAR Emax (%): activity repressed by 100 nM dexamethasone set as 100%; for EC50: inflection point (IP), TNFα promoter β-lactamase reporter, PMA/LPS; for Emax: U-937, activity repressed by 100 nM dexamethasone set as 100%
Excerpt: This assay assesses the ability of test compounds to control transcription from the TNFα-β-lactamase reporter gene in U937 cells, a human myelomonocytic leukemia cell line that naturally expresses the human GR. The assay measures compound dependent-repression of the TNFa promoter linked to a reporter gene.
The human U937 cells that had been stablely transfected with the TNF-α promoter driving β-lactamase are used for this assay. U937 cells contain an endogenous glucocorticoid receptor (GR). Cells are maintained in RPMI 1640 Growth medium (Gibco Cat#11875-093) containing 25 mM HEPES, 10% FBS, 2 mM L-Glutamine, 1 mM Sodium pyruvate, 25 μg/ml Gentamicin (Gibco Cat#15710-064), 1:1000 2-Mercaptoethanol (Gibco Cat#21985-023) and 0.8 mg/ml G418 (Gibco Cat#10131-027). The density of the cells in the flask needs to be about 1×106-3×10^6/ml at the time of harvest. Usually, the cells are split to 1.2˜1.4×10^5/ml (1:10) 3 days prior to the assay. 50,000 cells/well are plated in 96 well black-walled plates the day of assay. Test compounds are added 10 μL/well, and cells are incubated at 37° C. for 30˜45 min. For assaying compounds, first dilute 1:10 in DMSO to make 1 mM, then further dilute 1:100 in medium to make 10× stock prior to adding to the cells. Add 50 ng/ml PMA (Sigma, cat# P8139) 10 μL/well to a final concentration 5 ng/ml, and 1 μg/ml LPS (Sigma, cat# L4130) 10 μL/well to a final concentration 100 ng/ml. Incubate cells at 37° C. overnight for ˜18 hr. PMA is stored frozen as 100 μg/ml stock in DMSO. Dilute 1:10 in DMSO for a working stock of 10 μg/ml and store at −20 C. For assaying, dilute the 10 μg/ml working stock 1:200 in medium to make a 10× solution (50 ng/ml). Store frozen LPS at 1 mg/ml in PBS, dilute 1:1000 in medium to make 10× (1 μg/ml) for the assay. Add 6× loading buffer (CCF2-AM) 20 μL/well, and incubate at room temperature for 70˜90 min. […] The activity repressed by 100 nM dexamethasone alone is set as 100% activity.

Row | SMILES | Transrepression U937 Cells GITAR Emax (%) | EC50 | Emax
1 | C[C@]12Cc3cnn(-c4ccc(F)cc4)c3C=C1CC[C@@]2(CO)CC(O)c1ccccn1 (single isomer, unassigned) [Example 1b] | 91.7% | 24 nM | –
2 | C[C@]12Cc3cnn(-c4ccc(F)cc4)c3C=C1CC[C@@]2(CO)CC(O)c1cc(F)cc(Cl)c1 (single isomer, unassigned) [Example 6b] | 98.3% | 68.8 nM | –
3 | C[C@]12Cc3cnn(-c4cccc(F)c4)c3C=C1CC[C@@]2(CO)CC(O)c1ccccn1 (single isomer, unassigned) [Example 19b] | 86.7% | 73.8 nM | –
4 | C[C@]12Cc3cnn(-c4ccccc4)c3C=C1CC[C@@]2(CO)CC(O)c1ccccn1 (single isomer, unassigned) [Example 23b] | 83.7% | 49.6 nM | –
5 | C[C@]12Cc3cnn(-c4ccc(F)cc4)c3C=C1CC[C@@]2(CO)CC(O)c1cccnc1 (single isomer, unassigned) [Example 15b] | 80.6% | 98.5 nM | –
6 | COc1cccnc1C(O)C[C@]1(CO)CCC2=Cc3c(cnn3-c3ccc(F)cc3)C[C@@]21C (single isomer, unassigned) [Example 21a] | – | 101 nM | 85.4%
7 | COc1cccnc1C(O)C[C@]1(CO)CCC2=Cc3c(cnn3-c3ccc(F)cc3)C[C@@]21C (single isomer, unassigned) [Example 21b] | 91.3% | 18.7 nM | –
8 | CC(O)(C[C@]1(CO)CCC2=Cc3c(cnn3-c3ccc(F)cc3)C[C@@]21C)c1cccnc1 (single isomer, unassigned) [Example 25b] | 69.8% | 186 nM | –
9 | Cc1cccc(C(O)C[C@]2(CO)CCC3=Cc4c(cnn4-c4ccc(F)cc4)C[C@@]32C)c1 (single isomer, unassigned) [Example 5a] | – | 86.1 nM | 84.7%
10 | C[C@]12Cc3cnn(-c4ccc(F)cc4)c3C=C1CC[C@@]2(CO)CC(O)c1ccccc1Cl (single isomer, unassigned) [Example 3a] | – | 37.6 nM | 93.3%
11 | C[C@]12Cc3cnn(-c4ccc(F)cc4)c3C=C1CC[C@@]2(CO)CC(O)C(F)(F)F (single isomer, unassigned) [Example 28a] | – | 54.3 nM | 81.2%
12 | C[C@]12Cc3cnn(-c4ccc(F)cc4)c3C=C1CC[C@@]2(CO)CC(O)C1CCCCC1 (single isomer, unassigned) [Example 18a, 1-cyclohexyl-2-[(4αS)-1-(4-fluorophenyl)-5-(hydroxymethyl)-4α-methyl-1,4,4α,5,6,7-hexahydrocyclopenta[f]indazol-5-yl]ethanol] | – | 7.9 nM | 93.1%
13 | C[C@]12Cc3cnn(-c4ccccc4)c3C=C1CC[C@@]2(CO)CC(O)c1cccnc1 (single isomer, unassigned) [Example 29a] | – | 176 nM | 66.6%
14 | C[C@]12Cc3cnn(-c4ccc(F)cc4)c3C=C1CC[C@@]2(CO)CC1OC(=O)c2ccccc21 (single isomer, unassigned) [Example 12a] | – | 93.1 nM | 78.8%
15 | C[C@]12Cc3cnn(-c4ccc(F)cc4)c3C=C1CC[C@@]2(CO)CC(O)C1CC1 (single isomer, unassigned) [Example 20a, 1-cyclopropyl-2-[(4αS)-1-(4-fluorophenyl)-5-(hydroxymethyl)-4α-methyl-1,4,4α,5,6,7-hexahydrocyclopenta[f]indazol-5-yl]ethanol] | – | 133 nM | 79.9%
16 | C[C@]12Cc3cnn(-c4ccc(F)cc4)c3C=C1CC[C@@]2(CO)CC(O)c1ncccc1F (single isomer, unassigned) [Example 10b] | 93.9% | 4 nM | –
17 | COc1ccc(C(O)C[C@]2(CO)CCC3=Cc4c(cnn4-c4ccc(F)cc4)C[C@@]32C)nc1 (single isomer, unassigned) [Example 24b] | 57.9% | 376 nM | –
18 | C[C@]12Cc3cnn(-c4ccc(F)cc4)c3C=C1CC[C@@]2(CO)CC(O)c1ccccc1Cl (single isomer, unassigned) [Example 3b] | 99.6% | 6 nM | –
19 | C[C@]12Cc3cnn(-c4ccc(F)cc4)c3C=C1CC[C@@]2(CO)CC1OC(=O)c2ccccc21 (single isomer, unassigned) [Example 12b] | 93.0% | 34.9 nM | –
20 | C[C@]12Cc3cnn(-c4ccc(F)cc4)c3C=C1CC[C@@]2(CO)CC1OC(=O)c2ccccc21 (stereo partly drawn) [Example 11, 3-{[(4αS,5R)-1-(4-fluorophenyl)-5-(hydroxymethyl)-4α-methyl-1,4,4α,5,6,7,7a,8-octahydrocyclopenta[f]indazol-5-yl]methyl}-2-benzofuran-1(3H)-one] | – | 241 nM | 84.6%
21 | C[C@]12Cc3cnn(-c4ccc(F)cc4)c3C=C1CC[C@@]2(CO)CC(O)c1cccc(Cl)c1 (stereo partly drawn) [Example 8, 1-(3-chlorophenyl)-2-[(4αS,5R)-1-(4-fluorophenyl)-5-(hydroxymethyl)-4α-methyl-1,4,4α,5,6,7-hexahydrocyclopenta[f]indazol-5-yl]ethanol] | – | 21.4 nM | 89.9%
22 | C[C@]12Cc3cnn(-c4ccc(F)cc4)c3C=C1CC[C@@]2(CO)CC(O)C1CCCCC1 (single isomer, unassigned) [Example 18b, 1-cyclohexyl-2-[(4αS)-1-(4-fluorophenyl)-5-(hydroxymethyl)-4α-methyl-1,4,4α,5,6,7-hexahydrocyclopenta[f]indazol-5-yl]ethanol] | 97.7% | 25.7 nM | –
23 | C[C@]12Cc3cnn(-c4ccccc4)c3C=C1CC[C@@]2(CO)CC(O)c1cccnc1 (single isomer, unassigned) [Example 29b] | 60.9% | 103 nM | –
24 | C[C@]12Cc3cnn(-c4cccc(F)c4)c3C=C1CC[C@@]2(CO)CC(O)c1ccccn1 (single isomer, unassigned) [Example 19a] | – | 32.7 nM | 91.2%
25 | C[C@]12Cc3cnn(-c4ccc(F)cc4)c3C=C1CC[C@@]2(CO)CC(O)c1cc(F)cc(F)c1 (stereo partly drawn) [Example 9, 1-(3,5-difluorophenyl)-2-[(4αS,5R)-1-(4-fluorophenyl)-5-(hydroxymethyl)-4α-methyl-1,4,4α,5,6,7-hexahydrocyclopenta[f]indazol-5-yl]ethanol] | – | 0.6 nM | 102%
26 | C[C@]12Cc3cnn(-c4ccc(F)cc4)c3C=C1CC[C@@]2(CO)CC(O)c1cc(F)cc(Cl)c1 (single isomer, unassigned) [Example 6a] | – | 35.7 nM | 104%
27 | C[C@]12Cc3cnn(-c4cccc(F)c4)c3C=C1CC[C@@]2(CO)CC(O)c1cccnc1 (single isomer, unassigned) [Example 27b] | 71.9% | 334 nM | –
28 | C[C@]12Cc3cnn(-c4ccc(F)cc4)c3C=C1CC[C@@]2(CO)CC(O)c1cccc(C(F)(F)F)c1 (single isomer, unassigned) [Example 7b] | 98.4% | 44.7 nM | –
29 | Cc1ccc(C(O)C[C@]2(CO)CCC3=Cc4c(cnn4-c4ccc(F)cc4)C[C@@]32C)nc1 (stereo partly drawn) [Example 16, 2-[(4αS,5R)-1-(4-fluorophenyl)-5-(hydroxymethyl)-4α-methyl-1,4,4α,5,6,7-hexahydrocyclopenta[f]indazol-5-yl]-1-(5-methylpyridin-2-yl)ethanol] | – | 21.4 nM | 85.4%
